# Measurements: paper PMC12867150, “A fungi-derived cyclic peptide enhances Th9-mediated antitumor immunity by targeting ZAP70 and SREBP1” (The Journal of Clinical Investigation, 2025)
# Where “and” joins values, the source holds several entries; their conditions need not be identical. Identical values can stand only once.
# Columns and labels:
# MEK1/2 and ERK1/2 = experiment: Immunoblot of total and phosphorylated MEK1/2 and ERK1/2 (Figure 5G); assay type: cell-based, mouse; settings: result in words
# Method: Detailed lysis conditions, SDS–PAGE and transfer procedures, primary/secondary antibodies (including clones and catalog numbers), molecular weight markers, ECL detection, and ImageJ (NIH) quantification are described in Supplemental Methods.
# MH9A4, Biolegend, Cat. No. 507605, PE/Cy7, clone MH9A4, Biolegend, Cat. No. […]
# clone Mab11, Biolegend, Cat. No. 502908), Perforin (APC, clone dG9, Biolegend, Cat.
# Flow cytometric acquisition was performed using a BD Fortessa or Cytek Aurora cytometer. Data were analyzed with FlowJo software (v10.8.1 or newer). Fluorescence compensation, isotype-matched controls, and fluorescence-minus-one (FMO) controls were applied as appropriate for multicolor panel validation.
# Cells were washed twice with PBS and lysed in 1 × lysis buffer (NCM, Cat. No.
# WB3100) supplemented with a protease inhibitor cocktail (Solarbio, Cat. No. P1260).
# Protein lysates were separated by SDS-polyacrylamide gel electrophoresis (SDS-PA G E ; YEASEN, Cat. No. 20325ES62) and transferred to PVDF membranes for […]
# Membranes were probed with the following primary antibodies: ERK1/2 (clone […]
# BioLegend, Cat. No. 369502), MEK1/2 (clone L38C12, Cell Signaling Technology, Cat.
# No. 4694S), phospho -MEK1/2 (clone 41G9, Cell Signaling Technology, Cat. No. […]
# (Proteintech, Cat. No. 10745 -1-AP), Total Akt (Cell Signaling Technolo gy, Cat. No. […]
# [1] = tested on: transferred CD45.1+ Th9 cells; experiment: Cytokines and granzyme B/perforin in transferred CD45.1+ Th9 cells (Figure 3G, S4A-C); assay type: in vivo, mouse; design: IFN-γ expression / TNF-α expression / Expression of IFN-γ of transferred CD45.1⁺ OT-II Th9 cells in tumors / Expression of TNF-α of transferred CD45.1⁺ OT-II Th9 cells in tumors: unit not given here; settings: for Expression of GzmB+Perforin+ of transferred CD45.1⁺ OT-II Th9 cells in tumor: Supplemental Figure 4C; for Expression of IFN-γ of transferred CD45.1⁺ OT-II Th9 cells in tumors: Supplemental Figure 4A; for Expression of TNF-α of transferred CD45.1⁺ OT-II Th9 cells in tumors: Supplemental Figure 4B
# Method: C57BL/6 mice were subcutaneously injected with 5 × 10^5 B16-OVA melanoma cells. Five days after tumor implantation, mice received an intravenous infusion of 2 × 10^6 in vitro–differentiated Th9 cells (cultured for 5 days), which were derived from OT-II CD45.1 donor mice, accompanied by 4 × 10^5 OVA peptide–pulsed DCs via the tail vein. To enhance T cell engraftment and facilitate lymphodepletion, a single intraperitoneal injection of cyclophosphamide (200 mg/kg, Sigma, catalog C0768) was administered 1 day prior to T cell transfer. Mice were euthanized at designated time points for the collection and analysis of spleens, tumor-draining lymph nodes, and tumor tissues.
# Details regarding staining panels (human and mouse), reagents (including clones and catalog numbers), acquisition settings, compensation/controls, and analysis procedures are provided in Supplemental Methods.
# BioLegend, Cat. No. 422301 or Mouse TruStain FcX™, BioLegend, Cat. No. 101319) for 10 minutes at 4°C. For surface marker detection, cells were stained with fluorochrome-conjugated monoclonal antibodies in 96-well V-bottom plates and incubated on ice for 30 minutes. After staining, cells were washed twice and resuspended in FACS buffer for analysis.
# Prior to intracellular cytokine staining, cells were restimulated for 4 hours with PMA (Absin, Cat. No. abs9107), ionomycin (Sigma-Aldrich, Cat. No. I0634), and brefeldin A (MedChemExpress, Cat. No. HY-16592). For intracellular cytokine staining, cells were first surface-stained as described above, then fixed and permeabilized using the BD Cytofix/Cytoperm™ kit (BD Biosciences, Cat. No. 554714) according to the manufacturer ’s protocol. Intracellular proteins were stained with directly conjugated antibodies targeting IL-9, IL-17a, IL-4, IFN-γ, TNF-α, FOXP3, p-ZAP70, Perforin, and […]
# Antibodies used for mouse samples included those against IL-9 (PE, clone RM9A4, Biolegend, Cat. No. 514104), IFN-γ (PE, clone XMG1.2, Biolegend, Cat. No.
# Cat. No. 103138), CD4 (APC/Cy7, clone E-AB-F1353UJ, Elabscience, Cat. No.
# AF18028), CD8α (PerCP/Cy5.5, clone E-AB-F1104UJ, Elabscience, Cat. No. […]
# clone E-AB-F1187UH, Elabscience, Cat. No. AF19854), TNF-α (BV421, clone MP6-XT22, Biolegend, Cat. No. 506328), FOXP3 (PE, clone FJK-16s, eBioscience, Cat. No.
# Perforin (APC, clone S16009A, Biolegend, Cat. No. 154303) and Granzyme B (APC, clone QA16A02, Biolegend, Cat. No. 372203). For human samples, antibodies against CD4 (PerCP/Cy5.5, clone RPA-T4, Biolegend, Cat. No. 300530; APC/Cy7, clone OKT4, Biolegend, Cat. No. 317418), CD19 (APC/Cy7, clone SJ25C1, Biolegend, Cat.
# No. 363009), IFN-γ (PE, clone 4S.B3, Biolegend, Cat. No. 502509), IL-9 (PE, clone
# ZAP70 = experiment: CETSA of ZAP70 in Jurkat cell lysates (Figure 5C-D); assay type: binding, Jurkat cells; settings: result in words
# Method: Jurkat or 293T cells were washed twice with PBS and resuspended in PBS containing protease and phosphatase inhibitors. Cells were lysed by 3 cycles of liquid nitrogen snap-freezing and thawing at room temperature. […] One aliquot from each group was maintained at room temperature, and the others were heated for 3 minutes at 3 °C increments from 43°C to 64°C. Samples were then analyzed by SDS-PAGE and immunoblotting to assess protein thermal stability and compound binding.
# [2] = transferred CD45.1+ Th9, spleen, individual mice, n = 4
# [3] = transferred cells, tumor, result in words
substance,measurement,setting,value
anteiso-C15 Leu7 surfactin [EpA],MEK and ERK phosphorylation,MEK1/2 and ERK1/2,increased phosphorylation of MEK and ERK
same,GzmB+ PRF1+ gate number,"[1]; CD45.1+ T cells in tumors, representative flow plot, Figure S4C",34.1
same,GzmB and Perforin expression,[1]; [2],68.8 and 68 and 57.8 and 55.7
same,IFN-γ expression,[1]; [2],3.05 and 4.37 and 6.82 and 2.23
same,TNF-α expression,[1]; [2],23.2 and 21 and 17.5 and 23.6
same,"IFN-γ, TNF-α, granzyme B and perforin","[1]; transferred cells, spleen, result in words",markedly increased expression
same,IFN-γ expression,[1]; [3],elevated
same,TNF-α levels,[1]; [3],remained unchanged
same,granzyme B+ perforin+ frequency,[1]; [3],significantly higher
same,Expression of GzmB+Perforin+ of transferred CD45.1⁺ OT-II Th9 cells in tumor,"[1]; tumor, replicate 1",20.5
same,Expression of GzmB+Perforin+ of transferred CD45.1⁺ OT-II Th9 cells in tumor,"[1]; tumor, replicate 2",18.9
same,Expression of GzmB+Perforin+ of transferred CD45.1⁺ OT-II Th9 cells in tumor,"[1]; tumor, replicate 3",25.9
same,Expression of GzmB+Perforin+ of transferred CD45.1⁺ OT-II Th9 cells in tumor,"[1]; tumor, replicate 4",34.1
same,Expression of IFN-γ of transferred CD45.1⁺ OT-II Th9 cells in tumors,[1]; replicate 1,386
same,Expression of IFN-γ of transferred CD45.1⁺ OT-II Th9 cells in tumors,[1]; replicate 2,392
same,Expression of IFN-γ of transferred CD45.1⁺ OT-II Th9 cells in tumors,[1]; replicate 3,420
same,Expression of IFN-γ of transferred CD45.1⁺ OT-II Th9 cells in tumors,[1]; replicate 4,261
same,Expression of TNF-α of transferred CD45.1⁺ OT-II Th9 cells in tumors,[1]; replicate 1,916
same,Expression of TNF-α of transferred CD45.1⁺ OT-II Th9 cells in tumors,[1]; replicate 2,557
same,Expression of TNF-α of transferred CD45.1⁺ OT-II Th9 cells in tumors,[1]; replicate 3,913
same,Expression of TNF-α of transferred CD45.1⁺ OT-II Th9 cells in tumors,[1]; replicate 4,544
same,thermal stability of ZAP70,ZAP70,increased thermal stability of ZAP70
